Experimental data from patent publication US20200383985A1, “Inhibitors of Protease Activated Receptor-2” (Endosome Therapeutics, Inc., priority 2017, published 2020).
Read-outs that look alike come from different tables or passages of the source. Starred links: 1 amine or outer side, 2 acyl side, 3 side chain; linkers in the order of their positions; H or OH if unused. Positions of bridges follow the written chain, without caps; N, C: chain ends. Non-standard residues stand in square brackets, D forms with d. Residues, ends and D or L forms follow the SMILES beside them. *: point of attachment. Leu(3R-OH,Nα-propionyl) = CCC(=O)N[C@H](C(=O)*)[C@H](O)C(C)C; X1 = CC(C)[C@@H](O[*:3])[C@H](N[*:1])C(=O)[*:2]; NMeT = CN[C@H](C(=O)O)[C@@H](C)O; dPhLac = O=C(O)[C@H](O)Cc1ccccc1; NMeA = CN[C@@H](C)C(=O)O; NMeDha = C=C(NC)C(=O)O

How the values were obtained:
Assay type in all cases: cell-based
[1] = system: cytosolic and nuclear ERK; test: FRET assays of cytosolic and nuclear ERK in HEK293 cells; conditions: UBO-QIC 100 nM, G66983 1 μM; for trypsin-stimulated activation of cytosolic ERK: AG1478 1 μM
Procedure: Trypsin-induced ERK signaling mediated by endosomal PAR2 signaling was investigated in HEK293 cells expressing Flag-PAR2-HA11 and FRET biosensors for cytosolic and nuclear ERK (CytoEKAR, NucEKAR), plasma membrane and cytosolic PKC (pmCKAR, CytoCKAR), and plasma membrane and cytosolic cAMP (pmEpac, CytoEpac). […] I-343 (10 μM) but not SCH530348 (100 nM) inhibited trypsin activation of cytosolic and nuclear ERK (FIG. 5G). PS2 and DynK44E inhibited trypsin-stimulated activation of cytosolic and nuclear ERK when compared to PS2 inact and DynWT controls (FIG. 5H, 5I, 17G-J). AG1478 (1 μM), an inhibitor of EGF receptor tyrosine kinase (Levitzki, A. & Gazit, A. Science 1995, 267(5205): 1782-1788), UBO-QIC (100 nM), which inhibits Gαq and certain Gβγ signals ([…]), and G66983 (1 μM), which inhibits all isoforms of PKC (Gschwendt, M, et al., FEBS Lett 1996, 392(2): 77-80), suppressed trypsin-stimulated activation of cytosolic ERK (FIGS. 5J and 17K).
HEK293 cells were cultured in DMEM supplemented with 10% (v/v) FBS (5% CO2, 37° C.). When necessary serum restriction was achieved by replacing culture medium with DMEM containing 0.5% FBS overnight. Cells were transiently transfected using polyethylenimine (PEI) (1:6 DNA:PEI).
HEK293 cells were transiently transfected in 10 cm dishes (˜50% confluency) with Flag-PAR2-HA (2.5 μg) and FRET biosensors CytoEKAR or NucEKAR (2.5 μg) (Jensen, D. D. et al., Sci Transl Med. 2017, 9(392), eaal3447; Thomsen, A. R. B., et al., Cell 2016, 166(4): 907-919). In experiments examining the role of dynamin, cells were transfected with FLAG-PAR2-HA (1.25 μg), FRET biosensor (1.25 μg) and either DynWT-HA, DynK44E-HA or pcDNA3.1 (2.5 μg). At 24 h after transfection, cells were seeded on ViewPlate-96 well plates (PerkinElmer). FRET was assessed 72 h post-transfection, following overnight serum restriction. Cells were equilibrated in HBSS-HEPES (30 min, 37° C.). FRET was measured using a PHERAstar FSX Microplate Reader (BMG LabTech). For CFP/YFP emission ratio analysis, cells were sequentially excited using a CFP filter (425/10 nm) with emission measured using YFP (550/50 nm) and CFP (490/20 nm) filters. FRET was measured before and after stimulation with trypsin (10 nM), NE (100 nM), CS (100 nM), phorbol 12,13-dibutyrate, PDBu (positive control, 1 μM), or vehicle. FRET ratios (donor/acceptor intensity for EKAR, or acceptor/donor intensity for CKAR and Epac) were calculated and corrected to baseline and vehicle treatments to determine ligand-induced FRET (ΔFRET). Treatment effects were determined by comparison of area under the curve values. Signalling inhibitors were dissolved in HBSS-HEPES. PS2 and PS2 inact were dissolved in HBSS-HEPES+1% DMSO. Cells were incubated with UBO-QIC (100 nM), AG1478 (1 μM), G66983 (1 μM), PS2 or PS2 inact (30 μM) or vehicle (30 min preincubation, inclusion throughout).

human (h) PAR2 = molecular target: T1, human (h) PAR2 (Homo sapiens, UniProt P55085); test: IP1 accumulation assay in KNRK-hPAR2 cells; conditions: 100 nM 2F; 30 μM of antagonist; read-out: KNRK-PAR2 100 nM 2F: ND (inhibition of 2F at 30 μM of antagonist)
T1 construct: expressed in transfected cells; host or cells: KNRK cells (KNRK-hPAR2)
T1 sequence (P55085 26-397): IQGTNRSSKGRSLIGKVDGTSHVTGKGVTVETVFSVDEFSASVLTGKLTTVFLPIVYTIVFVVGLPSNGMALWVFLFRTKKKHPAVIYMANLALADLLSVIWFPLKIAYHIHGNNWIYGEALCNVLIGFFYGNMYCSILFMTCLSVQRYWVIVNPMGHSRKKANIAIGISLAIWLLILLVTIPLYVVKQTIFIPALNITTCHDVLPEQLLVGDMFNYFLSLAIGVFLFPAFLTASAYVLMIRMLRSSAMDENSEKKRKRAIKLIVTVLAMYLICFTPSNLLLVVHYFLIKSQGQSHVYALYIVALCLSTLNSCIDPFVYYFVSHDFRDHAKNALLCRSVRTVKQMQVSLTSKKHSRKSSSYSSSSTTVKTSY
Procedure: (§1) KNRK-hPAR2, KNRK or HT-29 cells were seeded at a density of 50×10^3 cells/well in a clear poly-d-lysine coated 96 well tissue culture plate. Following 24 h incubation at 37° C. and 5% CO2, media was removed and replaced with 80 μl IP1 stimulation buffer (10 mM HEPES, 1 mM CaCl2, 0.5 mM MgCl2, 4.2 mM KCl, 146 mM NaCl, 5.5 mM glucose, 50 mM LiCl). Following stimulation buffer addition, the wells received 10 μl of 10× antagonists or DMSO vehicle. All plates were further incubated at 37° C., 5% CO2 for 30 min. 10 μl of 2F or ATP was added to the plates and further incubated for 40 min. Following incubation, stimulation buffer was quickly removed by aspiration and replaced with 25 μl lysis buffer (IP-One HTRF® assay kit, Cisbio). Following incubation of the lysates at 37° C., 5% CO2 for 10′, 10 μl lysate was transferred to a 384-well OptiPlate (PerkinElmer) and detected using the IP-One HTRF® assay kit (Cisbio).
(§2) Compounds of the invention (added at 10×concentrations in a 10 μL volume) were incubated for 30 min prior to the addition of 10 μM ATP or 100 nM or 300 nM PAR2 agonist (2F; EC80, added at 10×concentrations in a 10 μL volume) and then further incubated for 40 min. After lysis, the inositol phosphate 1 was quantified with IP-One HTRF® assay kit, Cisbio. The data was analysed with Prism, GraphPad to calculate the IC50 values, shown below in Table 1.
(§3) Inhibition of PAR2 signaling with known PAR2 inhibitor I-343 (FIG. 14A) was investigated in HT-29 cells and HEK293 cells, which express endogenous PAR2, and in KNRK cells expressing human (h) PAR2. Accumulation of inositol phosphate-1 (IP1) was measured in response to the PAR2-selective agonist 2-Furoyl-LIGRLO-NH2 (2F), an analogue of the trypsin-exposed tethered ligand, or trypsin.
(§4) KNRK-hPAR2, KNRK, HEK293, or HT-29 cells were seeded at a density of 50×10^3 cells/well onto clear 96-well plates (PerkinElmer). After 24 h of culture, medium was replaced with IP1 stimulation buffer (10 mM HEPES, 1 mM CaCl2, 0.5 mM MgCl2, 4.2 mM KCl, 146 mM NaCl, 5.5 mM glucose, 50 mM LiCl; 37° C., 5% CO2.). Cells were pre-incubated with the antagonist or vehicle for 30 min prior to the addition of agonist. Cells were then further incubated for 40 min. Stimulation buffer was […]

PAR2 = molecular target: T2, PAR2 (Homo sapiens, UniProt P55085); test: IP1 accumulation assay in HT-29 cells (endogenous PAR2); conditions: 2F (300 nM)-induced IP1, HT-29 cells
T2 construct: HT-29 cells and HEK293 cells, which express endogenous PAR2; endogenous in cells; host or cells: HT-29
T2 sequence (P55085 26-397): T1 sequence (P55085 26-397)
Procedure: as §1, §2, §3, §4

[2] = read-out: HT-29 300 nM 2F (IC50)

SMILES	trypsin-stimulated activation of cytosolic ERK [1]	inhibition at 30 µM (human (h) PAR2)	IC50 (PAR2; [2])	IC50 (PAR2; read-out: HT-29 300 nM 2F pIC50 ± SEM (converted))	trypsin-stimulated activation of nuclear ERK [1]
COc1cc2ncnc(Nc3cccc(Cl)c3)c2cc1OC [AG1478]	suppressed	–	–	–	–
CC(C)CCC[C@@H](C)[C@H]1CCC2C3CCC4C[C@@H](OC(=O)C[C@H](NC(=O)CCOCCOCCOCCOCCOCCOCCOCCOCCNC(=O)CCCNC(=O)Cn5cc(C(=O)N6CCN(C(=O)c7cn8nc(-c9ccc(F)cc9)cc(C(C)(C)C)c8n7)C(C)(C)C6)nn5)C(N)=O)CC[C@]4(C)C3CC[C@@]21C (stereo partly drawn) [Compound 13, (3S,10S,13R,17R)-10,13-dimethyl-17-((R)-6-methylheptan-2-yl)hexadecahydro-1H-cyclopenta[a]phenanthren-3-yl (37S)-1-(4-(4-(8-(tert-butyl)-6-(4-fluorophenyl)imidazo[1,2-b]pyridazine-2-carbonyl)-3,3-dimethylpiperazine-1-carbonyl)-1H-1,2,3-triazol-1-yl)-37-carbamoyl-2,7,35-trioxo-11,14,17,20,23,26,29,32-octaoxa-3,8,36-triazanonatriacontan-39-oate]	–	< 50%	736 nM	–	–
CC(C)CCC[C@@H](C)[C@H]1CC[C@H]2[C@@H]3CCC4CC(OC(=O)C[C@H](NC(=O)CCOCCOCCOCCOCCOCCOCCNC(=O)[C@H](CCCNC(=N)N)NC(=O)CCOCCOCCOCCOCCOCCOCCNC(=O)Cn5cc(C(=O)N6CCN(C(=O)c7cn8nc(-c9ccc(F)cc9)cc(C(C)(C)C)c8n7)C(C)(C)C6)nn5)C(N)=O)CC[C@]4(C)[C@H]3CC[C@]12C (stereo partly drawn) [Compound 14]	–	< 50%	1550 nM	–	–
CCCCCCCCCCCCCCCCNC(=O)C[C@H](NC(=O)CCOCCOCCOCCOCCOCCOCCOCCOCCOCCOCCOCCOCCNC(=O)Cn1cc(C(=O)N2CCN(C(=O)c3cn4nc(-c5ccc(F)cc5)cc(C(C)(C)C)c4n3)C(C)(C)C2)nn1)C(N)=O [Compound 15, (S)-3-(1-(4-(4-(8-(tert-butyl)-6-(4-fluorophenyl)imidazo[1,2-b]pyridazine-2-carbonyl)-3,3-dimethylpiperazine-1-carbonyl)-1H-1,2,3-triazol-1-yl)-2-oxo-6,9,12,15,18,21,24,27,30,33,36,39-dodecaoxa-3-azadotetracontan-42-amido)-N1-hexadecylsuccinamide]	–	< 50%	–	47.2 nM	–
CC(C)CCC[C@@H](C)[C@H]1CC[C@H]2[C@@H]3CC[C@@H]4C[C@@H](OC(=O)C[C@H](NC(=O)CCOCCOCCOCCOCCOCCOCCNC(=O)[C@@H](O)[C@H](O)[C@H](O)[C@@H](O)C(=O)NC5CCC(C(=O)N6CCN(C(=O)c7cn8nc(-c9ccc(F)cc9)cc(C(C)(C)C)c8n7)C(C)(C)C6)CC5)C(N)=O)CC[C@]4(C)[C@H]3CC[C@]12C (stereo partly drawn) [Compound 16, (3S,5R,8R,9S,10S,13R,14S,17R)-10,13-dimethyl-17-((R)-6-methylheptan-2-yl)hexadecahydro-1H-cyclopenta[a]phenanthren-3-yl (3S,28S,29R,30S,31R)-32-((4-(4-(8-(tert-butyl)-6-(4-fluorophenyl)imidazo[1,2-b]pyridazine-2-carbonyl)-3,3-dimethylpiperazine-1-carbonyl)cyclohexyl)amino)-3-carbamoyl-28,29,30,31-tetrahydroxy-5,27,32-trioxo-8,11,14,17,20,23-hexaoxa-4,26-diazadotriacontanoate]	–	< 50%	2070 nM	–	–
CC(C)CCC[C@@H](C)[C@H]1CC[C@H]2[C@@H]3CC=C4C[C@@H](OC(=O)NCCCC[C@@H](NC(=O)CCOCCOCCOCCOCCOCCOCCOCCOCCOCCOCCOCCOCCNC(=O)Cn5cc(C(=O)N6CCN(C(=O)c7cn8nc(-c9ccc(F)cc9)cc(C(C)(C)C)c8n7)C(C)(C)C6)nn5)C(=O)NN)CC[C@]4(C)[C@H]3CC[C@]12C [Compound 17]	–	< 50%	5630 nM	–	–
COc1ccc2c(c1)c(C1=C(c3c[nH]c4ccccc34)C(=O)NC1=O)cn2CCCN(C)C [Compound G66983]	suppressed	–	–	–	inhibited
C=C1C(=O)N[C@@H](C)C(=O)N(C)[C@@H](C)C(=O)N[C@@H]([C@H](OC(=O)[C@@H](NC(=O)CC)[C@H](O)C(C)C)C(C)C)C(=O)N(C)[C@@H]([C@@H](C)OC)C(=O)O[C@H](C(C)C)[C@H](NC(C)=O)C(=O)O[C@H](Cc2ccccc2)C(=O)N1C [UBO-QIC] (Ac-[X1][dPhLac][NMeDha]A[NMeA][X1](Leu(3R-OH,Nα-propionyl))[NMeT](Me); ester 1-C)	suppressed	–	–	–	inhibited
